# Source: article PMC8151276, “An Integrated Approach toward NanoBRET Tracers for Analysis of GPCR Ligand Engagement” (Molecules, 2021)
# What was measured:
# Format in all cases: binding
# [1] = biological target: T1, LGR4 (Homo sapiens, UniProt Q9BXB1); assay: NanoBRET screen HiBiT-LGR4 in HEK293; settings: LGR4
# T1 construct: purchased Promega (in-house HiBiT-GPCR construct library, NanoBRET)
# T1 sequence (Q9BXB1 25-951): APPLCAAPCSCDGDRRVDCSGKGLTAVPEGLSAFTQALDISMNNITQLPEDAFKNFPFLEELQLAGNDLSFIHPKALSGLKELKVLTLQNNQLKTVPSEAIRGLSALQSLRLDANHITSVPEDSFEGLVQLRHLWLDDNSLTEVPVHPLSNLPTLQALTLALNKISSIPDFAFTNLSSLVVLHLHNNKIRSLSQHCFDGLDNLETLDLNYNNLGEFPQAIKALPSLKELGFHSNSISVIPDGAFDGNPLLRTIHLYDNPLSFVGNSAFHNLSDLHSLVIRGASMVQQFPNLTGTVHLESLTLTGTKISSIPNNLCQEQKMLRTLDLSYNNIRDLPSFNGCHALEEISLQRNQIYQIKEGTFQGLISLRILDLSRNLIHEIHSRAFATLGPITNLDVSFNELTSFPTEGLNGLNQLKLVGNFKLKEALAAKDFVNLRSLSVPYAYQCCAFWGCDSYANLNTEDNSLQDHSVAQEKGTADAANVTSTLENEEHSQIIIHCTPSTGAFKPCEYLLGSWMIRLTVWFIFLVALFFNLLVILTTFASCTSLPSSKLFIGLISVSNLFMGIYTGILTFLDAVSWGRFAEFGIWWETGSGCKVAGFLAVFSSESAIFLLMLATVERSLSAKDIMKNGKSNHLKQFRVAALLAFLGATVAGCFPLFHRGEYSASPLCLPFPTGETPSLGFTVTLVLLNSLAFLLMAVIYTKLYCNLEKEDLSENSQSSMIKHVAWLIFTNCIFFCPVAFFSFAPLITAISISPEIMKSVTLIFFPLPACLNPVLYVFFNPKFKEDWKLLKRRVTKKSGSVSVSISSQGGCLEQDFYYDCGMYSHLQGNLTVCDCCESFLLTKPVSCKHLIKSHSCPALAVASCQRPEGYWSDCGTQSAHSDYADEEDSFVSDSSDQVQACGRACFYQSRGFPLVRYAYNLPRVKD
# Procedure: (§1) Each tracer candidate was screened across the entire library of HiBiT-GPCR constructs using NanoBRET as the detection modality. As depicted in Figure 4A, the specificity of interactions was evaluated through decrease in BRET due to competitive displacement of a bound tracer by excess parental compound. Each tracer was analyzed for binding to each HiBiT-GPCR fusion in the absence and in the presence of competing parental compound. Briefly, HEK293 cells were transfected with HiBiT-GPCR constructs diluted into promoterless DNA to reduce expression and maximize translocation to the cell surface. Each tracer candidate was then screened at concentrations of 1 μM and 0.1 μM across cells expressing these fusions. Cells were treated for 1.5 h with tracer either alone or in the presence of 20 μM competing parental compound (i.e., control). BRET was measured upon addition of purified LgBiT and subsequent complementation with HiBiT genetically fused to a GPCR. The specificity of interactions was assessed through a decrease in BRET signal due to competitive displacement of the bound tracer. To further gauge the robustness of these interactions, the fold response over the control (i.e., BRETtracer/BRETcontrol) was calculated. We chose a 1.5-fold response, which translates to ≥7-fold signal over noise as the minimal threshold required to score an interaction as positive. […]. Below we highlight the screening results obtained for our exemplary fluorescent tracers based on Clozapine, Amitriptyline and AZD1283.
# (§2) HiBiT-GPCR DNA constructs were diluted in 10 mM Tris pH 8 to a final concentration of 0.01 μg/μL, arrayed in 96-well plates and stored at −20 °C. For transfection, HEK293 cells were suspended in Opti-MEM (without phenol red) supplemented with 2% fetal bovine serum (Seradigm) and 100 units/mL penicillin–streptomycin (Gibco) at a final concentration of 220,000 cells/mL and dispensed into white 96-well plates at 90 μL/well. Subsequent transfections and screens were carried using an Agilent Bravo Automated Liquid Handling Platform. First, the 96-well HiBiT DNA arrays were diluted 25-fold in Opti-MEM (without serum or phenol red) to a final concentration of 0.0004 μg/μL and 20 μL of the diluted DNAs were transferred into new 96-well plates. Next, promoterless carrier DNA (1 μg/μL) was diluted 25-fold (0.04 μg/μL) and then dispensed into the diluted arrays at 20 μL/well. Following brief mixing, Viafect transfection reagent (Promega) diluted 16-fold into Opti-MEM was dispensed into the plates at 40 μL/well. After mixing by pipetting, plates were incubated for 10 min on the pipetting station deck. The DNA-transfection reagent complexes were then added to plates containing cells. To facilitate the screen, 10 μL of DNA-transfection reagent complexes were added in duplicates to the top 4 and bottom 4 rows, resulting in two identical 48-well arrays per plate. Plates with transfected cells were incubated for 18–20 h at 37 °C/5% CO2. A screen of each tracer across the entire library using two different concentrations requires duplicate plates of transfected cells. Depending on the number of tracers being screened, transfections can be scaled up using the same ratios. The next day, for each tracer, four 20× screening solutions in tracer dilution buffer (Promega) were prepared: two duplicates at final concentration of 20 μM and two duplicates at a final concentration of 2 μM. A competing unmodified compound was added to one of each duplicate at a final concentration of 400 μM. The four resulting solutions were diluted 4-fold in Opti-MEM without serum or phenol red to generate 5× solutions (5 µM and 0.5 µM tracer +/− 100 μM competing compound). To screen the library, a BioTek MultiFlo FX liquid dispenser was used to dispense 22.5 µL of tracer solution to the top 4 rows and 22.5 µL tracer + competing compound solution to the 4 bottom rows. Plates were briefly mixed on an orbital shaker and incubated for 1.5 h at room temperature. […]
# [2] = biological target: T2, LTB4R (Homo sapiens, UniProt Q15722); assay: NanoBRET screen HiBiT-LTB4R in HEK293; settings: LTB4R
# T2 construct: purchased Promega (in-house HiBiT-GPCR construct library, NanoBRET)
# Procedure: as §1, §2
# [3] = biological target: T3, HTR1E (Homo sapiens, UniProt P28566); assay: NanoBRET screen HiBiT-HTR1E in HEK293; settings: HTR1E
# T3 construct: purchased Promega (in-house HiBiT-GPCR construct library, NanoBRET)
# Procedure: as §1, §2
# [4] = biological target: T4, FZD7 (Homo sapiens, UniProt O75084); assay: NanoBRET screen HiBiT-FZD7 in HEK293; settings: FZD7
# T4 construct: purchased Promega (in-house HiBiT-GPCR construct library, NanoBRET)
# Procedure: as §1, §2
# [5] = biological target: T5, CCR8 (Homo sapiens, UniProt P51685); assay: NanoBRET screen HiBiT-CCR8 in HEK293; settings: CCR8
# T5 construct: purchased Promega (in-house HiBiT-GPCR construct library, NanoBRET)
# Procedure: as §1, §2
# T2 sequence (Q15722 whole entry): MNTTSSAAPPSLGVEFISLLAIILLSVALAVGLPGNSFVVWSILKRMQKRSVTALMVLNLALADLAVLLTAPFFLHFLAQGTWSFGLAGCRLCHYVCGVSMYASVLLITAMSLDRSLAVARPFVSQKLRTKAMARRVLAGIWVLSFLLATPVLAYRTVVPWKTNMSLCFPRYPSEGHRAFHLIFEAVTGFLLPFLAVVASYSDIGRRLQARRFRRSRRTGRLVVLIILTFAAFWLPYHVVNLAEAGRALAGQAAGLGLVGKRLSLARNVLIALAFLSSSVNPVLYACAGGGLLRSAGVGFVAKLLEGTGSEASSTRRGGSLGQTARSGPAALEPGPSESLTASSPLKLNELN
# T5 sequence (P51685 whole entry): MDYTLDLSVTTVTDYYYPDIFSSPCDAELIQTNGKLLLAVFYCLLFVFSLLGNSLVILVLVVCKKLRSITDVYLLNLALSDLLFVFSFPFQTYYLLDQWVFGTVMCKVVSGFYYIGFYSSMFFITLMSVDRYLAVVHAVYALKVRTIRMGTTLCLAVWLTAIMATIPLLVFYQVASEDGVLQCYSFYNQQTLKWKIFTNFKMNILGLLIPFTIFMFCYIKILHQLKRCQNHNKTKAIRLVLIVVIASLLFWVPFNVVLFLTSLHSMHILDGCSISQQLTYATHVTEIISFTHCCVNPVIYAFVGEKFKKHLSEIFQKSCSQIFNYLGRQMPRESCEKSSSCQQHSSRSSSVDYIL
# T3 sequence (P28566 whole entry): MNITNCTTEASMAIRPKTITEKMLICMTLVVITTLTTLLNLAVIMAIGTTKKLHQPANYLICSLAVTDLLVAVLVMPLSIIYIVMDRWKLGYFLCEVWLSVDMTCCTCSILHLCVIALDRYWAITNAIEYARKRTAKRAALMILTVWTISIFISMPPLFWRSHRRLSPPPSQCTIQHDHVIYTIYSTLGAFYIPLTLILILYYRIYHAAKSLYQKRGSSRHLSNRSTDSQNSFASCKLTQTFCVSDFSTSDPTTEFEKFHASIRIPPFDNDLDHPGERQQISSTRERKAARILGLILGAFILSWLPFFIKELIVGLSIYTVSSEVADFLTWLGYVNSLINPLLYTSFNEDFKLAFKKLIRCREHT
Compound,NanoBRET Fold Response ([1]; tracer 0.1μM),NanoBRET Fold Response ([1]; tracer 1μM),NanoBRET Fold Response ([2]; tracer 0.1μM),NanoBRET Fold Response ([2]; tracer 1μM),NanoBRET Fold Response ([3]; tracer 0.1μM),NanoBRET Fold Response ([3]; tracer 1μM),NanoBRET Fold Response ([4]; tracer 0.1μM),NanoBRET Fold Response ([4]; tracer 1μM),NanoBRET Fold Response ([5]; tracer 0.1μM),NanoBRET Fold Response ([5]; tracer 1μM)
O=C(CCc1ccc2n1[B-](F)(F)[N+]1=C(c3ccc[nH]3)C=CC1=C2)NCCOCCOCCNC(=O)OCCOCCN1CCN(C2=Nc3ccccc3Sc3ccccc32)CC1 [Quetiapine-a-2-NB590],1.00,1.05,1.27,1.40,0.96,0.99,1.04,0.91,0.93,1.16
Cc1nc2n(c(=O)c1CCN1CCC(c3noc4cc(F)ccc34)CC1)CCCC2OC(=O)NCCOCCOCCOCCOCCNC(=O)CCc1ccc2n1[B-](F)(F)[N+]1=C(c3ccc[nH]3)C=CC1=C2 (centres unmarked) [Risperidone-2-NB590],0.93,0.98,1.03,1.00,0.96,1.07,0.98,1.04,0.98,0.89
CC(C)N(CC[C@H](c1ccccc1)c1cc(CCNC(=O)CCOCCOCCOCCOCCNC(=O)CCc2ccc3n2[B-](F)(F)[N+]2=C(c4ccc[nH]4)C=CC2=C3)ccc1O)C(C)C [Tolterodine-2-NB590],1.12,1.24,0.92,0.96,1.27,1.10,1.00,1.12,0.82,1.07
CC(C)N(CC[C@H](c1ccccc1)c1cc(CCNC(=O)c2ccc(CNC(=O)CCc3ccc4n3[B-](F)(F)[N+]3=C(c5ccc[nH]5)C=CC3=C4)cc2)ccc1O)C(C)C [Tolterodine-BZ-NB590],1.02,1.02,0.95,1.03,1.13,1.13,1.04,1.06,0.92,1.00
CCCn1c(=O)c2[nH]c(-c3ccc(OCC(=O)NCCNC(=O)CCOCCNC(=O)c4ccc(CNC(=O)CCc5ccc6n5[B-](F)(F)[N+]5=C(c7ccc[nH]7)C=CC5=C6)cc4)cc3)nc2n(CCC)c1=O [XAC-3-NB590],1.02,0.99,1.09,1.11,1.08,0.78,1.09,1.01,0.90,0.93
